In ChEMBL document CHEMBL1142026, “Isoindolinone-based inhibitors of the MDM2-p53 protein-protein interaction” (Bioorg Med Chem Lett, 2005):

target: Tumour suppressor p53/oncoprotein Mdm2 (Homo sapiens, UniProt P04637+Q00987); test: (§1) Inhibitory concentration against MDM2-p53 interaction in SJSA human sarcoma cells; type: cell-based, SJSA-1; conditions: sjsa-1
Sequence (P04637 whole entry): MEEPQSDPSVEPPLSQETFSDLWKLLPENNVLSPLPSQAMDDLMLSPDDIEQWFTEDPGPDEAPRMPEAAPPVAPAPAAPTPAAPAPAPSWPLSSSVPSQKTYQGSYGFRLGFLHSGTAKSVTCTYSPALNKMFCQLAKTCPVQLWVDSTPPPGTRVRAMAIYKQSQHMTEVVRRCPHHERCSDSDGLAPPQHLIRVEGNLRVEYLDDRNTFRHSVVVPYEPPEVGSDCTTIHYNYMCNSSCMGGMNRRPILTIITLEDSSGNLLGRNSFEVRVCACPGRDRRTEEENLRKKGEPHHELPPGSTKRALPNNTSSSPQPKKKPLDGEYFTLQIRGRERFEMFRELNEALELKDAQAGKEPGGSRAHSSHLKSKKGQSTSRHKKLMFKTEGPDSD
Sequence (Q00987 whole entry): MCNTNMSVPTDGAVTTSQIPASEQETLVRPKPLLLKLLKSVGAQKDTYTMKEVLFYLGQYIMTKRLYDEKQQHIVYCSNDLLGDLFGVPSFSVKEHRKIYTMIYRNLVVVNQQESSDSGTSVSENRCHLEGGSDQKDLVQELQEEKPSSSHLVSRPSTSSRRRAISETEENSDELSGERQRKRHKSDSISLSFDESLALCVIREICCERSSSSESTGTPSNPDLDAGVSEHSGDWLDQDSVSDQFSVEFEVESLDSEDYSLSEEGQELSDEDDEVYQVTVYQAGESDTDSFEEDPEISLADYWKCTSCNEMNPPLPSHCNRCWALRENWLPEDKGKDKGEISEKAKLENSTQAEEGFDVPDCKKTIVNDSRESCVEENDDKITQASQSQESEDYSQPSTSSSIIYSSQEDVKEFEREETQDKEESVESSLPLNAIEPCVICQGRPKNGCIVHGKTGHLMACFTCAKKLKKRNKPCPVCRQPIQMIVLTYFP

IC50 [µM]	SMILES
92	CC(C)(C)c1ccc(COC2(c3ccccc3)c3ccccc3C(=O)N2Cc2ccccc2)cc1 (stereo in doubt; 2d)

target: Tumour suppressor p53/oncoprotein Mdm2 (Homo sapiens, UniProt Q00987); test: as §1; type: cell-based, SJSA-1; conditions: not given
Sequence (P04637 whole entry): as the sequence (P04637 whole entry) above
Sequence (Q00987 whole entry): as the sequence (Q00987 whole entry) above

IC50 [µM]	SMILES
17.9	COc1cc(COC2(c3ccccc3)c3ccccc3C(=O)N2Cc2ccccc2)cc(OC)c1O (centres undefined)
16.4	CCCN1C(=O)c2ccccc2C1(OCCCO)c1ccc(Cl)cc1 (centres undefined)
57	CCCN1C(=O)c2ccccc2C1(OCCc1ccccn1)c1ccc(Cl)cc1 (centres undefined)
~200	CCCNC1(c2ccccc2)c2ccccc2C(=O)N1Cc1ccccc1 (centres undefined)
27	CCCN1C(=O)c2ccccc2C1(NC(=O)c1ccc(C(C)(C)C)cc1)c1ccc(OCOCC[Si](C)(C)C)cc1 (centres undefined)
92	CC(C)(C)c1ccc(COC2(c3ccccc3)c3ccccc3C(=O)N2Cc2ccccc2)cc1 (stereo in doubt; 5)
26.2	O=C1c2ccccc2C(OCCc2ccccn2)(c2ccc(Cl)cc2)N1Cc1ccccc1 (centres undefined)
76	COc1cc(COC2(c3ccc(Cl)cc3)c3ccccc3C(=O)N2CCNC(C)=O)cc(OC)c1O (centres undefined)
14	CC(=O)NCCN1C(=O)c2ccccc2C1(OCc1ccc(C(C)(C)C)cc1)c1ccccc1 (centres undefined)
~200	CCCOC1(c2ccccc2)c2ccccc2C(=O)N1CCC (centres undefined)
42	COc1cc(COC2(c3ccc(Cl)cc3)c3ccccc3C(=O)N2Cc2ccccc2)cc(OC)c1O (centres undefined)
70	COc1ccc(C(O)CNC2(c3ccccc3)c3ccccc3C(=O)N2Cc2ccccc2)cc1 (centres undefined)
99	CC(C)(C)c1ccc(COC2(c3ccc(Cl)cc3)c3ccccc3C(=O)N2Cc2ccccc2)cc1 (centres undefined)
66	CCCN1C(=O)c2ccccc2C1(NC(=O)c1ccccc1)c1ccc(C(C)(C)C)cc1 (centres undefined)
100	CCCN1C(=O)c2ccccc2C1(OCCc1ccccn1)c1ccccc1 (centres undefined)
5.3	CCCN1C(=O)c2ccccc2C1(OCc1cc(OC)c(O)c(OC)c1)c1ccc(Cl)cc1 (centres undefined)
91.4	CC(=O)NCCN1C(=O)c2ccccc2C1(OCc1ccc(C(C)(C)C)cc1)c1ccc(Cl)cc1 (centres undefined)
90	CCCOC1(c2ccccc2)c2ccccc2C(=O)N1C(Cc1ccc(O)cc1)C(=O)OC (centres undefined)
15.9	O=C1c2ccccc2C(OCCCO)(c2ccc(Cl)cc2)N1Cc1ccccc1 (centres undefined)
~200	CCCOC1(c2ccccc2)c2ccccc2C(=O)N1Cc1ccccc1 (centres undefined)
82	CCCN1C(=O)c2ccccc2C1(OCc1cc(OC)c(O)c(OC)c1)c1ccccc1 (centres undefined)

SMILES	IC50 [µM]
CCCN1C(=O)c2ccccc2C1(OCCCO)c1ccccc1 (centres undefined)	> 500
CCCN1C(=O)c2ccccc2C1(OCc1ccc(C(C)(C)C)cc1)c1ccccc1 (centres undefined)	> 500
